Experimental data from patent publication US9114150B2, “Stable aqueous compositions comprising bioactive creatine species” (JHO INTELLECTUAL PROPERTY HOLDINGS, LLC, priority 2008, dated 2015).

Assay: Stability study of aqueous solutions (0.250 mg/mL) assayed by HPLC at periodic intervals for 60 days
Format: physicochemical
Settings: for Creatinine in solution (HPLC assay): 0.250 mg/mL; for Fraction converted to creatinine: aqueous media; for Prepared substance remaining in solution (HPLC assay): buffer, 0 days, 0.25 mg/mL
Protocol: Creatinol-O-Phospate Solution: A batch of pure water or distilled water is put in a container, adjusted to a prescribed of pH 3 or pH 7 with a normal buffer and buffer salts, and heated to a temperature of 20° to 99° C. To 100 parts by weight of the warm water is added 0.1 to 0.3 parts by weight of the Creatinol-O-Phophate (COP) which is dissolved by stirring. The pH is not particularly limited but is desirably not higher than pH 12 taking the physiological influences of the gastrointestinal tracts into consideration.
They were stored at room temperature (25 C, 77 F), at refrigerator temperature (4 C, 39 F), and at elevated temperature (40 C, 104 F) in glass scintillation vials. These samples were assayed by HPLC at periodic intervals for 60 days and evaluated relative to Standard regression curves of known concentrations of the actives and of creatinine, the primary known degradation product of creatine.

[1] = prepared at pH 3.0, 25° C., 39 Days
[2] = prepared at pH 3.0, 25° C., 60 days
[3] = prepared at pH 3.0, 25° C., INITIAL
[4] = prepared at pH 3.0, 40° C., 39 Days
[5] = prepared at pH 3.0, 40° C., 60 days
[6] = prepared at pH 3.0, 40° C., INITIAL
[7] = prepared at pH 7.0, 40° C., 39 Days
[8] = prepared at pH 7.0, 40° C., 60 days
[9] = prepared at pH 7.0, 40° C., INITIAL

For `CN(CC(=O)O)C(=N)N.O` [Creatine Monohydrate, reference compound], the “Creatinine in solution (HPLC assay)” value (pH 3.0, 25° C., 39 Days) was 0.154 mg/mL, the “Creatinine in solution (HPLC assay)” value (pH 3.0, 25° C., 3 day) was 0.026 mg/mL and the “Creatinine in solution (HPLC assay)” value (pH 3.0, 25° C., 10 days) was 0.072 mg/ml mg/mL. The “Creatinine in solution (HPLC assay)” value (pH 3.0, 25° C., 21 days) was 0.111 mg/mL, the “Creatinine in solution (HPLC assay)” value (pH 3.0, 25° C., 60 days) was 0.167 mg/mL and the “Creatinine in solution (HPLC assay)” value (pH 3.0, 25° C., INITIAL) was 0.000 mg/mL. For the same molecule, the “Creatinine in solution (HPLC assay)” value (pH 3.0, 40° C., 39 Days) was 0.186 mg/mL, the “Creatinine in solution (HPLC assay)” value (pH 3.0, 40° C., 3 day) was 0.125 mg/Ml mg/mL and the “Creatinine in solution (HPLC assay)” value (pH 3.0, 40° C., 10 days) was 0.177 mg/ml mg/mL. The “Creatinine in solution (HPLC assay)” value (pH 3.0, 40° C., 21 days) was 0.186 mg/mL, the “Creatinine in solution (HPLC assay)” value (pH 3.0, 40° C., 60 days) was 0.187 mg/mL and the “Creatinine in solution (HPLC assay)” value (pH 3.0, 40° C., INITIAL) was 0.000 mg/mL. For the same molecule, the “Creatinine in solution (HPLC assay)” value (pH 7.0, 40° C., 39 Days) was 0.068 mg/mL, the “Creatinine in solution (HPLC assay)” value (pH 7.0, 40° C., 3 day) was 0.008 mg/mL and the “Creatinine in solution (HPLC assay)” value (pH 7.0, 40° C., 60 days) was 0.101 mg/mL. The “Creatinine in solution (HPLC assay)” value (pH 7.0, 40° C., INITIAL) was 0.000 mg/mL, the “Fraction converted to creatinine” value (39 days, pH 3.0, stored at 40° C.) was 74% and the “Fraction converted to creatinine” value (39 days, pH 7.0, stored at 40° C.) was 28%. For the same molecule, the “Fraction converted to creatinine” value (pH 3.0, stored at 4° C.) was 62%, the “pH of the solution” value [1] was 3.4 and the “pH of the solution” value [2] was 3.4. The “pH of the solution” value [3] was 3.0, the “pH of the solution” value [4] was 3.4 and the “pH of the solution” value [5] was 3.4. For the same molecule, the “pH of the solution” value [6] was 3.0, the “pH of the solution” value [7] was 7.4 and the “pH of the solution” value [8] was 7.4. For the same molecule, the “pH of the solution” value [9] was 7.0.
For `CN(CCOP(=O)(O)O)C(=N)N` [Creatinol-O-Phosphate, Creatinol-O-phosphate], the “Stability by increase in creatinine levels over time (FIG. 1, in words)” value was “stable and resistant to decomposition”, the “Stability in aqueous solution (in words)” value was “stable” and the “Creatinine in solution (HPLC assay)” value (pH 3.0, 4° C., 39 Days) was 0.00 mg/mL. For the same molecule, the “Creatinine in solution (HPLC assay)” value (pH 3.0, 4° C., 3 day) was 0.0 mg/mL, the “Creatinine in solution (HPLC assay)” value (pH 3.0, 4° C., 10 days) was 0.0 mg/mL and the “Creatinine in solution (HPLC assay)” value (pH 3.0, 4° C., 21 days) was 0.0 mg/mL. The “Creatinine in solution (HPLC assay)” value (pH 3.0, 4° C., 60 days) was 0.00 mg/mL, the “Creatinine in solution (HPLC assay)” value (pH 3.0, 4° C., INITIAL) was 0.0 mg/mL and the “Creatinine in solution (HPLC assay)” value (pH 3.0, 25° C., 39 Days) was 0.00 mg/mL. For the same molecule, the “Creatinine in solution (HPLC assay)” value (pH 3.0, 25° C., 3 day) was 0.0 mg/mL, the “Creatinine in solution (HPLC assay)” value (pH 3.0, 25° C., 10 days) was 0.0 mg/mL and the “Creatinine in solution (HPLC assay)” value (pH 3.0, 25° C., 21 days) was 0.0 mg/mL. For the same molecule, the “Creatinine in solution (HPLC assay)” value (pH 3.0, 25° C., 60 days) was 0.00 mg/mL, the “Creatinine in solution (HPLC assay)” value (pH 3.0, 25° C., INITIAL) was 0.0 mg/mL and the “Creatinine in solution (HPLC assay)” value (pH 3.0, 40° C., 39 Days) was 0.00 mg/mL. The “Creatinine in solution (HPLC assay)” value (pH 3.0, 40° C., 3 day) was 0.0 mg/mL, the “Creatinine in solution (HPLC assay)” value (pH 3.0, 40° C., 10 days) was 0.0 mg/mL and the “Creatinine in solution (HPLC assay)” value (pH 3.0, 40° C., 21 days) was 0.0 mg/mL. For the same molecule, the “Creatinine in solution (HPLC assay)” value (pH 3.0, 40° C., 60 days) was 0.00 mg/mL, the “Creatinine in solution (HPLC assay)” value (pH 3.0, 40° C., INITIAL) was 0.0 mg/mL and the “Creatinine in solution (HPLC assay)” value (pH 7.0, 4° C., 39 Days) was 0.00 mg/mL. For the same molecule, the “Creatinine in solution (HPLC assay)” value (pH 7.0, 4° C., 3 day) was 0.0 mg/mL, the “Creatinine in solution (HPLC assay)” value (pH 7.0, 4° C., 10 days) was 0.0 mg/mL and the “Creatinine in solution (HPLC assay)” value (pH 7.0, 4° C., 21 days) was 0.0 mg/mL. For the same molecule, the “Creatinine in solution (HPLC assay)” value (pH 7.0, 4° C., 60 days) was 0.00 mg/mL, the “Creatinine in solution (HPLC assay)” value (pH 7.0, 4° C., INITIAL) was 0.0 mg/mL and the “Creatinine in solution (HPLC assay)” value (pH 7.0, 25° C., 39 Days) was 0.00 mg/mL. For the same molecule, the “Creatinine in solution (HPLC assay)” value (pH 7.0, 25° C., 3 day) was 0.0 mg/mL, the “Creatinine in solution (HPLC assay)” value (pH 7.0, 25° C., 10 days) was 0.0 mg/mL and the “Creatinine in solution (HPLC assay)” value (pH 7.0, 25° C., 21 days) was 0.0 mg/mL. For the same molecule, the “Creatinine in solution (HPLC assay)” value (pH 7.0, 25° C., 60 days) was 0.00 mg/mL, the “Creatinine in solution (HPLC assay)” value (pH 7.0, 25° C., INITIAL) was 0.0 mg/mL and the “Creatinine in solution (HPLC assay)” value (pH 7.0, 40° C., 39 Days) was 0.00 mg/mL. For the same molecule, the “Creatinine in solution (HPLC assay)” value (pH 7.0, 40° C., 3 day) was 0.0 mg/mL, the “Creatinine in solution (HPLC assay)” value (pH 7.0, 40° C., 10 days) was 0.0 mg/mL and the “Creatinine in solution (HPLC assay)” value (pH 7.0, 40° C., 21 days) was 0.0 mg/mL. The “Creatinine in solution (HPLC assay)” value (pH 7.0, 40° C., 60 days) was 0.00 mg/mL, the “Creatinine in solution (HPLC assay)” value (pH 7.0, 40° C., INITIAL) was 0.0 mg/mL and the “Prepared substance remaining in solution (HPLC assay)” value (pH 3) was 0.247 mg/ml mg/mL. For the same molecule, the “Prepared substance remaining in solution (HPLC assay)” value (pH 7) was 0.226 mg/ml mg/mL, the “pH of the solution” value (prepared at pH 3.0, 4° C., 39 Days) was 3.1 and the “pH of the solution” value (prepared at pH 3.0, 4° C., 60 days) was 3.1. The “pH of the solution” value (prepared at pH 3.0, 4° C., INITIAL) was 3.0, the “pH of the solution” value [1] was 3.1 and the “pH of the solution” value [2] was 3.1. The “pH of the solution” value [3] was 3.0, the “pH of the solution” value [4] was 3.0 and the “pH of the solution” value [5] was 3.0. The “pH of the solution” value [6] was 3.0, the “pH of the solution” value (prepared at pH 7.0, 4° C., 39 Days) was 5.2 and the “pH of the solution” value (prepared at pH 7.0, 4° C., 60 days) was 5.2. The “pH of the solution” value (prepared at pH 7.0, 4° C., INITIAL) was 7.0, the “pH of the solution” value (prepared at pH 7.0, 25° C., 39 Days) was 5.3 and the “pH of the solution” value (prepared at pH 7.0, 25° C., 60 days) was 5.3. For the same molecule, the “pH of the solution” value (prepared at pH 7.0, 25° C., INITIAL) was 7.0, the “pH of the solution” value [7] was 5.5 and the “pH of the solution” value [8] was 5.5. For the same molecule, the “pH of the solution” value [9] was 7.0.
